# Reference: patent publication US20230364029A1, “POLYMORPHIC FORMS OF (R)-2-HYDROXY-2-METHYL-4-(2,4,5-TRIMETHYL-3,6-DIOXOCYCLOHEXA-1,4-DIENYL)BUTANAMIDE” (PTC THERAPEUTICS, INC., priority 2014, published 2023)
# Assays:
# Type in all cases: physicochemical
# [1] = Solubility measurement of Pattern A in 17 solvent systems (gravimetric); conditions: for solubility: thermodynamic from solid
# Text: (R)-Trolox was produced from racemic Trolox via methylbenzyl amine double resolution in a manner similar to that described in Example 29 of U.S. Pat. No. 4,026,907. This (R)-Trolox was used to synthesize the (R)-2-hydroxy-2-methyl-4-(2,4,5-trimethyl-3,6-dioxocyclohexa-1,4-dienyl)butanamide starting material. This starting material, designated as Pattern A, was used for the solubility measurement.
# Excess amount of solid was slurried in 17 solvent systems having diverse properties for minimum of 3 days. The slurry was centrifuged and the clear solution was used for gravimetric method. […] Limited solubility was observed from heptane, toluene, MTBE, water and 0.5% Methyl Cellulose in water at ambient and elevated temperatures. Table 9 presents the measured solubility data. A ±10% error is expected.
# [2] = Short term slurry experiments (form by XRPD); conditions: slurried in most of 17 solvents, min. 3 days
# Procedure: Short term slurry experiments of the starting material, Pattern A, were performed for a minimum of 3 days in 17 different solvent systems having diverse properties at two different temperatures (25 and 50° C.). A 48 position Chemglass reaction block was used for heating and stirring the slurries which were in 2 mL HPLC vials. After the due time, vials were centrifuged and the wet solids were used for X-ray diffraction.
# [3] = 7 day elevated aqueous humidity studies; conditions: for XRPD [Pattern] 7 day: form after 7 days
# Procedure: 7 day elevated aqueous humidity experiments were performed on all Patterns A, B, C, D, E and F at ambient conditions at > 95%RH (Table 17). Approximately 30 mg of each pattern was weighed into a 4 ml glass vial. The uncovered 4 ml vial was inserted into a 20 ml scintillation vial half filled with water and capped. Following 24 hours of equilibration, visual inspection was performed to check for changes in physical appearance, however no change was observed.
# [4] = Grinding experiments; conditions: for XRPD after grinding: RT; for Stability of crystal form to grinding: light grinding, dry and with IPA or water
# Procedure: Grinding experiments of the starting material were performed by dry grinding and solvent drop grinding in IPA and water utilizing a mortar and pestle (Table 18).
# [5] = Aqueous solubility (HPLC); conditions: water, thermodynamic from solid, ambient conditions, 24 hours of equilibration
# Procedure: Aqueous solubility of Patterns A, B, C, E and F was performed using an Agilent HPLC system. Approximately 10-20 mg of each form was charged to a 2 mL glass vial loaded with a magnetic stir bar and added 2 mL of water. The samples were allowed to stir overnight at ambient conditions. Following 24 hours of equilibration the samples were centrifuged and decanted into HPLC vials. A calibration curve was generated based on Pattern A in MeOH at 0.05, 0.1, 0.5 and 1.0 mg/mL. Following injection of the standard curve, the samples were run as is.
# [6] = Moisture sorption analysis; conditions: for Hygroscopicity: moisture sorption, 0-95% RH cycles
# Procedure: Moisture sorption analysis of the starting material was performed by equilibrating the sample at 25° C. and 50% RH to simulate ambient lab conditions. Humidity then decreased to 0% RH, increased from 0 to 95% RH, reduced from 95 to 0% RH, increased from 0 to 95 %RH and then decreased from 95 to 50% RH. Each point represents the estimated asymptotic weight for each humidity or weight. […] No hysteresis was observed upon desorption (FIG. 14).
# Moisture sorption analysis of Pattern E (from the 300 mg scale lot) was performed by equilibrating the sample at 25° C. and 50% RH to simulate ambient lab conditions. Humidity was then decreased to 0% RH, increased from 0 to 95% RH, reduced from 95 to 0% RH, increased from 0 to 95 %RH and then decreased from 95 to 50% RH. Each point represents the estimated asymptotic weight for each humidity or weight. […] No hysteresis was observed upon desorption (FIG. 19).
# Moisture sorption analysis of Pattern C (300 mg lot) was performed by equilibrating the sample at 25° C. and 50% RH to simulate ambient lab conditions. Humidity was then decreased to 0% RH, increased from 0 to 95% RH, reduced from 95 to 0% RH, increased from 0 to 95%RH and then decreased from 95 to 50% RH. Each point represents the estimated asymptotic weight for each humidity or weight. […] This increased the total water to about 6% which is the water content of mono-hydrate. However, upon reducing the relative humidity, the solid lost its water. Therefore this could be a channel hydrate. No hysteresis was observed upon desorption (FIG. 24).
# Moisture sorption analysis of Pattern B (300 mg lot) was performed by equilibrating the sample at 25° C. and 50% RH to simulate ambient lab conditions. Humidity then decreased to 0% RH, increased from 0 to 95% RH, reduced from 95 to 0% RH, increased from 0 to 95 %RH and then decreased from 95 to 50% RH. Each point represents the estimated asymptotic weight for each humidity or weight. […] The major weight loss at the beginning was due to loss of solvent.
# Moisture sorption analysis of Pattern F (from Example 6) was performed by equilibrating the sample at 25° C. and 50% RH to simulate ambient lab conditions. Humidity was then decreased to 0% RH, increased from 0 to 95% RH, reduced from 95 to 0% RH, increased from 0 to 95 %RH and then decreased from 95 to 50% RH. Each point represents the estimated asymptotic weight for each humidity or weight. […] The major weight loss at the beginning is due to loss of solvent.
smiles,measurement,setting,value
"CC1=C(C)C(=O)C(CC[C@@](C)(O)C(N)=O)=C(C)C1=O [Pattern A, (R)-2-hydroxy-2-methyl-4-(2,4,5-trimethyl-3,6-dioxocyclohexa-1,4-dienyl)butanamide]",Solubility in a simple detergent,[1]; 0.5% MC/2% Tween 80,increased solubility
same,solubility,"[1]; 0.5% methyl cellulose in water, 25 °C, aqueous with cosolvent or surfactant or cyclodextrin, 0.5% MC in Water, part of the concentration relates to solvent constituents",7 mg/mL
same,solubility,"[1]; 0.5% methyl cellulose in water, 50 °C, aqueous with cosolvent or surfactant or cyclodextrin, 0.5% MC in Water, part of the concentration relates to solvent constituents",4 mg/mL
same,solubility,"[1]; 0.5% methyl cellulose/2% Tween 80, 25 °C, aqueous with cosolvent or surfactant or cyclodextrin, 0.5% MC/2% Tween 80, 25° C., part of the concentration relates to solvent constituents",26 mg/mL
same,solubility,"[1]; 0.5% methyl cellulose/2% Tween 80, 50 °C, aqueous with cosolvent or surfactant or cyclodextrin, 0.5% MC/2% Tween 80, 50° C., part of the concentration relates to solvent constituents",30 mg/mL
same,solubility,"[1]; 2-MeTHF, 25 °C, organic solvent or mixture, gravimetric",35 mg/mL
same,solubility,"[1]; 2-MeTHF, 50 °C, organic solvent or mixture, gravimetric",59 mg/mL
same,solubility,"[1]; 4% DMA in PBS, 25 °C, aqueous buffer, part of the concentration relates to solvent constituents",10 mg/mL
same,solubility,"[1]; 4% DMA in PBS, 50 °C, aqueous buffer, part of the concentration relates to solvent constituents",13 mg/mL
same,solubility,"[1]; EtOAc, 25 °C, organic solvent or mixture, gravimetric",22 mg/mL
same,solubility,"[1]; EtOAc, 50 °C, organic solvent or mixture, gravimetric",38 mg/mL
same,solubility,"[1]; EtOH, 25 °C, organic solvent or mixture, gravimetric",40 mg/mL
same,solubility,"[1]; EtOH, 50 °C, organic solvent or mixture, gravimetric",> 121 mg/mL
same,Solubility in polar and non-polar solvents,"[1]; Example 2, summary statement",soluble in a variety of polar and non-polar solvents
same,solubility,"[1]; IPA, 25 °C, organic solvent or mixture, gravimetric",20 mg/mL
same,solubility,"[1]; IPA, 50 °C, organic solvent or mixture, gravimetric",53 mg/mL
same,solubility,"[1]; IPAc, 25 °C, organic solvent or mixture, gravimetric",13 mg/mL
same,solubility,"[1]; IPAc, 50 °C, organic solvent or mixture, gravimetric",16 mg/mL
same,solubility,"[1]; MTBE, 25 °C, organic solvent or mixture, gravimetric",10 mg/mL
same,solubility,"[1]; MTBE, 50 °C, organic solvent or mixture, gravimetric",16 mg/mL
same,solubility,"[1]; MeCN, 25 °C, organic solvent or mixture, gravimetric",20 mg/mL
same,solubility,"[1]; MeCN, 50 °C, organic solvent or mixture, gravimetric",38 mg/mL
same,solubility,"[1]; MeOH, 25 °C, organic solvent or mixture, gravimetric",> 101 mg/mL
same,solubility,"[1]; MeOH, 50 °C, organic solvent or mixture, gravimetric",> 112 mg/mL
same,solubility,"[1]; THF, 25 °C, organic solvent or mixture, gravimetric",28 mg/mL
same,solubility,"[1]; THF, 50 °C, organic solvent or mixture, gravimetric",33 mg/mL
same,solubility,"[1]; acetone, 25 °C, organic solvent or mixture, gravimetric",39 mg/mL
same,solubility,"[1]; acetone, 50 °C, organic solvent or mixture, gravimetric",90 mg/mL
same,solubility,"[1]; heptane, 25 °C, organic solvent or mixture, slurry min. 3 days, gravimetric",6 mg/mL
same,solubility,"[1]; heptane, 50 °C, organic solvent or mixture, slurry min. 3 days, gravimetric",6 mg/mL
same,solubility,"[1]; toluene, 25 °C, organic solvent or mixture, gravimetric",3 mg/mL
same,solubility,"[1]; toluene, 50 °C, organic solvent or mixture, gravimetric",< 18 mg/mL
same,solubility,"[1]; water, 25 °C, ^1Water (second water line), gravimetric",2 mg/mL
same,solubility,"[1]; water, 25 °C, gravimetric",3 mg/mL
same,solubility,"[1]; water, 50 °C, ^1Water (second water line), gravimetric",6 mg/mL
same,solubility,"[1]; water, 50 °C, gravimetric",3 mg/mL
same,Stability of form in short term slurry,[2],relatively stable
same,Visual Observations 1 day,[3]; > 95 %RH at Ambient,Yellow solids
same,Visual Observations 7 day,[3]; > 95 %RH at Ambient,Yellow Solids
same,XRPD [Pattern] 7 day,[3]; > 95 %RH at Ambient,no change in form
same,XRPD [Pattern] 7 day,"[3]; > 95 %RH at Ambient, listed as A",Crystalline [Pattern A]
same,Stability to elevated humidity,"[3]; Example 8, summary statement",stability to elevated humidity
same,XRPD after grinding,"[4]; dry grinding, mortar and pestle",Pattern A
same,Stability of crystal form to grinding,[4],no change in the crystal form
same,Stability of crystal form to grinding,[4]; listed as Form I,stability to grinding
same,XRPD after grinding,"[4]; solvent drop grinding, H2O (2 drops)",Pattern A
same,XRPD after grinding,"[4]; solvent drop grinding, IPA (2 drops)",Pattern A
same,solubility at 24 h,[5],1740 µg/mL
same,XRPD following moisture sorption analysis,[6]; after 0-95% RH cycles at 25° C.,"consistent with the starting material, Pattern A"
same,Water adsorbed,"[6]; at 90 %RH, 25° C.",0.1%
same,Hygroscopicity,[6]; 25° C.,non-hygroscopic
same,Hygroscopicity,"[6]; 25° C., listed as Form I",non-hygroscopic
same,Hysteresis upon desorption,"[6]; moisture sorption-desorption, 25° C.",No hysteresis
